Measured values as given in patent US20240382506A1, “Means and Methods to Regulate Gut Dysbiosis” (VIB VZW, priority 2021, published 2024).

Key:
[1] = biological target: membrane pannexin-1 channels (Homo sapiens, UniProt Q96RD7); conditions: described in literature; cited from earlier work
Salmonella [2] = experiment: Salmonella growth in CT26 cell supernatants; format: cell-based, Salmonella enterica serovar Typhimurium
Protocol: (§1) All mammalian cells were cultured at 5×10^5 cells per ml. Cells were washed with 1× PBS before induction of cell death in the indicated medium. Jurkat cells were cultured in suspension at 5×10^5 cells/ml. After induction of cell death, supernatant was collected and spun at 330 rcf for 5 minutes to remove cellular debris. Unless stated otherwise, the resulting supernatant was filtered using a 0.2 μm syringe filter and either used immediately or frozen at −20° C. for later use. Cells were stained with Annexin V (AV) conjugated to APC or Pac Blue and either Sytox blue, Yoyo-1, or 7AAD (DNA binding dyes) for 15 minutes at room temperature in Annexin V binding buffer (BD). Flow cytometry was performed using the Attune NxT (Invitrogen), the FACS Calibur (BD), the LSR Fortessa (BD), or the LSRII (BD). Data were analyzed using FlowJo v.10 software. All independent experiment values shown are the average values of technical duplicates. ‘% Annexin V^+’ cells include Annexin V^+DNA dye^− and Annexin V^+DNA dye^+ cell populations.
FADD-dependent apoptosis: CT26:FADD clones were incubated with 1 μg/ml doxycycline for 16 hours to induce expression of the construct. Doxycycline was washed away before addition of 10 nM B/B Homodimerizer for 5 hours to induce death. For Caspase inhibition studies, cells were incubated with 30 μM QVD for 1 hour prior to B/B administration and QVD was maintained in the media. […]
OD600 measurements: 4 ml of supernatant or media controls were inoculated with 1-2×10^7 CFU/ml of the indicated bacterial species. Cultures were grown at 37° C. with 200 rpm agitation (aerobic) and bacterial growth was quantified by OD600 measurements using the Ultrospec 10 (VWR) at the indicated time points. […]
(§2) CFU/ml values: 500 μl of supernatant or media controls were inoculated with 1×10^3 CFU of the indicated strain. Cultures were grown at 37° C. with 200 rpm agitation (aerobic) and growth was assessed at the indicated time by serially diluting with 1× PBS and plating onto LB agar (in vitro supernatants) or MacConkey agar (ex vivo primary colonocyte supernatants) to obtain CFU/ml values.

CT26:FADD cells = experiment: CT26:FADD cell death (flow cytometry); format: cell-based, murine
Protocol: as §1
FADD-dependent apoptosis: CT26:FADD clones were incubated with 1 μg/ml doxycycline for 16 hours to induce expression of the construct. Doxycycline was washed away before addition of 10 nM B/B Homodimerizer for 5 hours to induce death. […]

Salmonella [3] = format: cell-based, Salmonella enterica serovar Typhimurium
Protocol: Full length colons (from cecum to rectum) were excised from the indicated genotype of mice and cut open longitudinally to flay the colon open. Opened colons were vortexed 2-3 times in sterile 1× PBS to remove fecal content. Colons were then cut horizontally into 5-7 mm long pieces and incubated in DMEM +10% FBS and an antibiotic cocktail containing Ampicillin (100 μg/ml), Chloramphenicol (20 μg/ml), Kanamycin (50 μg/ml), and Streptomycin (100 μg/ml) for 2 hours at 37° C. with 5% CO2. Colonic pieces were then washed 3 times in sterile 1× PBS to remove any traces of the antibiotic cocktail. Individual colonic pieces were then incubated in 1.5 ml Eppendorf tubes containing 500 μl of DMEM+10% FBS+/−2 μM Stauro for 8 hours or +/−20 μg/ml Doxorubicin for 6 hours. For caspase inhibition, 30 μM QVD was added to the 2-hour antibiotic treatment step and was maintained throughout death induction. After death induction, colonic explants were spun at max speed for 5 minutes using a tabletop centrifuge and supernatant was collected. Unfiltered supernatant was used immediately or frozen −20° C. for subsequent use. […] All subsequent experiments (cell death, bacterial growth) utilized explants extracted from a minimum of 3 mice.
as §2

Salmonella [4] = experiment: Salmonella gene expression (qPCR) in mammalian cell supernatants; format: cell-based, Salmonella enterica serovar Typhimurium; conditions: apoptotic supernatants from CT26 and HCT116 cells
Protocol: For all gene expression studies, bacterial cultures were grown to mid logarithmic growth phase (OD600=0.4−0.6), spun down at max speed, and then resuspended in TRIzol™ reagent (ThermoFisher) for immediate extraction or frozen at −80° C. Bacterial RNA was extracted and DNA removed as described using the RiboPure RNA Purification Kit (Thermo Fisher). For RNAseq experiments, ribosomal RNA was removed using Ribo-zero kits (Illumina). For all RNAseq data, sample groups were analyzed in quadruplicates and reads were mapped to the Salmonella Typhimurium SL1344 reference genome (ASM21085v2, EnsEMBL 39).
qPCR: cDNA synthesis was performed using the SensiFast cDNA synthesis kit (GC Biotech). qPCR primers were designed using NCBI Primer Blast. The ΔΔCT values for each independent biological replicate were calculated twice, first using the Salmonella housekeeping gene gmk^55 and then the housekeeping gene strB^56 and the two ΔΔCT values were averaged. Relative fold expression was calculated such that the average of the indicated controls was equal to 1. The endogenous controls for HS E. coli samples were gmk and rpoA^57. All independent experiment values shown are the average values of technical duplicates.

CT26 cells = experiment: Pyruvate concentration in CT26 supernatants; format: cell-based, murine; conditions: CT26 cells triggered with staurosporine
Protocol: Shikonin: CT26 cells were pretreated with 5 μM Shikonin (or DMSO vehicle control) for 1 hour. Cells were then washed once with PBS before replacing with fresh media containing the indicated trigger of cell death +/−5 μM Shikonin.
Metabolite detection: Pyruvate, formate, or fructose 1,6-bisphosphate concentrations were determined using the appropriate detection kit per the manufacturer's instructions. For these experiments, mammalian cells were cultured in DMEM without phenol red supplemented with 10% FBS.

E. coli = E. coli infection after doxorubicin treatment in mice; format: in vivo; conditions: C57BL/6 mice; data not shown
Protocol: (§3) Doxorubicin treatment. Doxorubicin was given as a single intraperitoneal (ip) injection at 15 mg/kg of mouse body weight while vehicle control (water) was given at similar volumes (approximately 300 μl volumes of water or 1 mg/ml Doxorubicin solution). The next day, mice were infected with 1×10^9 CFU of Salmonella (either single strain of competitive infections, as described above) or 1×10^9 CFU of E. coli. Tissues were harvested at day 1 post-infection and weight loss, total Salmonella burden, and competitive indices were calculated as above. Total Enterobacteriaceae burden, including E. coli, was assessed by plating tissue lysates on MacConkey agar without antibiotics. Uninfected controls were given 1× PBS via oral gavage instead of bacteria, and Endogenous Enterobacteriaceae burden was assessed by plating tissue lysates on MacConkey agar without antibiotics.

Enterobacteriaceae = experiment: Bacterial growth in media with or without Doxo; format: cell-based, Salmonella and E. coli (strain HS); conditions: 9 hours aerobic growth in media with or without Doxo
Protocol: as §2

C57BL/6 colonic explants = experiment: Caspase-3 activation in colonic explants (colorimetric assay); format: cell-based, mouse; conditions: 20 μg/ml Doxo, 6 hours ex vivo
Protocol: Full length colons (from cecum to rectum) were excised from the indicated genotype of mice and cut open longitudinally to flay the colon open. Opened colons were vortexed 2-3 times in sterile 1× PBS to remove fecal content. Colons were then cut horizontally into 5-7 mm long pieces and incubated in DMEM +10% FBS and an antibiotic cocktail containing Ampicillin (100 μg/ml), Chloramphenicol (20 μg/ml), Kanamycin (50 μg/ml), and Streptomycin (100 μg/ml) for 2 hours at 37° C. with 5% CO2. Colonic pieces were then washed 3 times in sterile 1× PBS to remove any traces of the antibiotic cocktail. Individual colonic pieces were then incubated in 1.5 ml Eppendorf tubes containing 500 μl of DMEM+10% FBS+/−2 μM Stauro for 8 hours or +/−20 μg/ml Doxorubicin for 6 hours. For caspase inhibition, 30 μM QVD was added to the 2-hour antibiotic treatment step and was maintained throughout death induction. […]
Caspase-3 activation: Following removal of the supernatant, explant pieces were assessed for caspase-3 activity via the Caspase-3 Colorimetric Activity Assay Kit, DEVD (Sigma) according to the manufacturer's instructions. Colorimetric values were obtained at 405 nm using the iMark™ microplate reader (BioRad) and arbitrary units were calculated from a standard curve using the provided pNA standard.

[5] = Doxorubicin-induced gastrointestinal toxicity in mice; format: in vivo
Protocol: as §3

Salmonella [6] = experiment: Salmonella infection after doxorubicin treatment in mice; format: in vivo, Salmonella enterica serovar Typhimurium; conditions: day 1 post-infection
Protocol: Salmonella-induced colitis. Littermate, sex, and age-matched mice were infected using the Salmonella model of colitis^34. Specific pathogen free (SPF) mice were given a single dose of 20 mg streptomycin via oral gavage (100 μl of 200 mg/ml streptomycin dissolved in water) one day prior to infection. Mice were infected with 1×10^7 CFU per mouse resuspended in 1× PBS via oral gavage. For competitive infections, polar deletions containing the chromosomally inserted kanamycin resistance gene were used^56. Mice were infected with 1×10^7 CFU per strain per mouse, for a 2×10^7 CFU per mouse total inoculum in 100 μl. […] The input ratio of each strain was calculated by plating the infective dose on agar plates containing streptomycin (total inoculum) and agar plates containing streptomycin plus kanamycin (mutant strain). WT Salmonella was thus calculated as (total inoculum)−(mutant inoculum) and input ratio was calculated as (WT Salmonella)/(mutant Salmonella inoculum) with a desired input equal to 1. Mouse body weight was measured daily and ‘% body weight’ was calculated as (daily weight)/(day 0 starting weight). […] CFU per gram of tissue were calculated by plating serial dilutions of tissue homogenates on MacConkey agar containing streptomycin and MacConkey agar containing streptomycin and kanamycin. […]

[7] = system: endogenous Enterobacteriaceae; experiment: Endogenous Enterobacteriaceae burden in uninfected doxorubicin-treated mice; format: in vivo; conditions: uninfected C57BL/6 mice, 2 days post-treatment
Protocol: as §3

[8] = single ip 15 mg/kg, followed by oral infection
[9] = uninfected mice, 2 days post-treatment

Sequence of membrane pannexin-1 channels (Q96RD7 whole entry): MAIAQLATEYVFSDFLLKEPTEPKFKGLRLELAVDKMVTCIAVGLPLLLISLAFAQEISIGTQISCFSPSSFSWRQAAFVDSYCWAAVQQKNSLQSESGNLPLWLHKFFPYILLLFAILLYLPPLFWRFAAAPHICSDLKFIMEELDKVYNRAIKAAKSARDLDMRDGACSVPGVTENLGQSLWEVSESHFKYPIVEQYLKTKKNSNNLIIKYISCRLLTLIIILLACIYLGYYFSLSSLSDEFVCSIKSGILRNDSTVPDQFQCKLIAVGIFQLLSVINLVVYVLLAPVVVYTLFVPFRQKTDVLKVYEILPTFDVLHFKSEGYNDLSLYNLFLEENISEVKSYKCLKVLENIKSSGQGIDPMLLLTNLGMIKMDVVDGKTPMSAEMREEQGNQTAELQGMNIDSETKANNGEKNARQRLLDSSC

For `CC(=O)S[C@@H]1CC2=CC(=O)CC[C@]2(C)[C@H]2CC[C@@]3(C)[C@@H](CC[C@@]34CCC(=O)O4)[C@H]12` [spironolactone, Spironolactone], which “membrane pannexin-1 channel inhibition” value [1] is on record?
Its value is “membrane pannexin-I channel inhibitor”.

For `C=CCc1cccc(/C=N/NC(=O)CN2CCN(Cc3ccccc3)CC2)c1O` [Pac-1], which “bacterial growth in supernatants from treated CT26 cells” value (Salmonella [2]; 50 μM Pac-1 24 hours, OD600) is on record?
The value was “enhanced bacterial growth”.

With `N[C@@H]1[C@H]2CN(c3nc4c(cc3F)c(=O)c(C(=O)O)cn4-c3ccc(F)cc3F)C[C@@H]12` [Trovafloxacin] as the compound, how does the “membrane pannexin-1 channel inhibition” value [1] read?
Its value is “membrane pannexin-1 channel inhibitor”.

Which “Salmonella growth in CT26:FADD supernatants with caspase inhibition” value (Salmonella [2]; CT26:FADD cells treated with QVD, 8 hours aerobic growth) does the source give for `CC(C)[C@H](NC(=O)c1ccc2ccccc2n1)C(=O)N[C@@H](CC(=O)O)C(=O)COc1c(F)cccc1F` [QVD] here?
The value was “reduced Salmonella growth back to media and live cell supernatant controls”.

What about the cell death (CT26:FADD cells; 30 μM QVD, 5 hours post-death induction with B/B dimerizer) of the same compound?
Its cell death is “reduced cell death”.

And the apoptotic caspase activation (CT26:FADD cells; QVD, data not shown)?
Its apoptotic caspase activation is “reduced”.

What about the “Salmonella growth in dying colonocyte supernatant with caspase inhibition” value (Salmonella [3]; colonic explants treated with QVD and Stauro together, 30 μM QVD) of the same compound?
Its value is “restricted Salmonella growth to live supernatant control levels”.

For `C[C@H](Cn1cnc2c(N)ncnc21)OCP(=O)(O)O` [Tenofovir], which “membrane pannexin-1 channel inhibition” value [1] is on record?
Its value is “inhibit membrane pannexin-1 channels”.

For `CCCN(CCC)S(=O)(=O)c1ccc(C(=O)O)cc1` [Probenecid], which “membrane pannexin-1 channel inhibition” value [1] is on record?
The value was “membrane pannexin-1 channel inhibitor”.

With `CN[C@@H]1C[C@H]2O[C@@](C)([C@@H]1OC)n1c3ccccc3c3c4c(c5c6ccccc6n2c5c31)C(=O)NC4` [staurosporine, Staurosporine] as the compound, how does the “Salmonella growth in supernatants of apoptotic CT26 cells compared to control treatments” value (Salmonella [2]; 1 μM staurosporine 24 hours, 9 hours aerobic growth) read?
The value was “strongly induced Salmonella growth”.

What about the “Salmonella cadB expression” value (Salmonella [4]) of the same compound?
Its value is “significantly increased the expression”.

What about the “Salmonella pflB expression” value (Salmonella [4]) of the same compound?
The value was “significantly increased the expression”.

And the “pyruvate released compared to live cell supernatants or fresh media controls” value (CT26 cells)?
The value was “significantly higher levels of pyruvate”.

What about the “Salmonella growth in apoptotic supernatants compared to live (vehicle-treated) colonocyte supernatants” value (Salmonella [3]; C57BL/6 colonic explants, 2 μM Stauro 8 hours ex vivo, CFU after 9 hours aerobic growth) of the same compound?
Its value is about 10 fold.

Which “bacterial burden following infection with E. coli” value (E. coli) does the source give for `COc1cccc2c1C(=O)c1c(O)c3c(c(O)c1C2=O)C[C@@](O)(C(=O)CO)C[C@@H]3O[C@H]1C[C@H](N)[C@H](O)[C@H](C)O1` [doxorubicin] here?
Its value is “staggering increases in bacterial burden”.

And the “direct action on bacterial growth (CFU)” value (Enterobacteriaceae)?
Its value is “direct antimicrobial action”.

And the caspase-3 activation (C57BL/6 colonic explants)?
Its caspase-3 activation is “induced caspase-3 activation”.

What about the cecal weight [5, 8] of the same compound?
The cecal weight was “significant reduction in cecal weight”.

And the colon length [5, 8]?
Its colon length is “shortening of the colon”.

And the “caspase-3 activation in the ilea” value [5, 9]?
Its value is “caspase-3 activation in the ilea”.

What about the “damage to ceca and colons” value [5, 9] of the same compound?
The value was “sufficient to induce damage to the ceca and colons”.

And the “bacterial burden following infection with Salmonella” value (Salmonella [6]; C57BL/6 mice)?
Its value is “staggering increases in bacterial burden”.

And the “WT Salmonella compared to ΔpflB mutant (competitive index)” value (Salmonella [6]; control mice after doxorubicin treatment)?
Its value is “significantly enriched”.

And the “endogenous Enterobacteriaceae CFU” value [7]?
Its value is “potent expansion of the endogenous Enterobacteriaceae”.

What about the “Salmonella outgrowth in supernatants of treated colonic explants” value (Salmonella [3]; 20 μg/ml Doxo ex vivo, 9 hours aerobic growth) of the same compound?
The value was “directly enhanced Salmonella outgrowth”.
